According to patent US10548942B2, “CXCR antagonistic peptides and uses thereof” (STC.UNM, priority 2013, dated 2020):
“Also recorded” adds a separate entry of the source.

Legend:
[1] = target: T1, CXCR2 receptor (Rattus norvegicus, UniProt P35407); assay: ac-PGP-induced apoptosis in primary cortical neurons, TUNEL stain; type: cell-based
T1 construct: endogenous in cells; host or cells: primary cortical neurons from Sprague-Dawley rat embryos (E18)
T1 sequence (P35407 1-359): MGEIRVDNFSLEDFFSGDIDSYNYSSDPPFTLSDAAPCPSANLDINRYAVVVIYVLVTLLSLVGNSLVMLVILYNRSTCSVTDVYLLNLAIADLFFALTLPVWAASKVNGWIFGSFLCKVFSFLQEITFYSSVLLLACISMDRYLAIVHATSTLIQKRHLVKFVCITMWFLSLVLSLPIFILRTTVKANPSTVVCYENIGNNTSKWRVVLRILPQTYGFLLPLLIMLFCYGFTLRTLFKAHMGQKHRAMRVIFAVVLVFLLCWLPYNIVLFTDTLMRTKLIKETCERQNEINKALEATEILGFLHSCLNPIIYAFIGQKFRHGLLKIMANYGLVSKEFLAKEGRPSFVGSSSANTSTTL
Experimental: First, the mechanism by which ac-PGP induces apoptosis in cortical neurons was investigated. Because ac-PGP is reported to engage neutrophil CXCR2 receptors, whether an established CXCR2 receptor antagonist, SB225002, could influence ac-PGP neurotoxicity was tested.
Cortical neurons were obtained from Sprague-Dawley rat embryos at day 18 of gestation. Cortices were triturated digested with 0.025% trypsin in phosphate buffer saline (PBS) for 10 minutes. Digestion was stopped by the addition of Dulbecco's Modified Eagle Medium (DMEM) containing 10% fetal bovine serum (FBS). Trypsinized cells were filtered using […] disposable cell filters (Becton-Dickinson), washed twice with Neurobasal medium (Gibco) containing 4% FBS, and preplated 4 times for 30 minutes in 150 mm vacuum-plasma treated dishes (Becton-Dickinson). During these preplating steps, primarily non-neuronal cells adhere to the dish, thereby enriching the neuronal population. […] At 7 DIV, cortical cultures were 98% neurons as assessed by microtubule-associated protein 2 (MAP2) antibody labeling and flow cytometry analysis (data not shown). […]
Cortical neurons were obtained from Sprague-Dawley rat embryos at day 18 of gestation. […] At 7 DIV, cortical cultures were 98% neurons as assessed by microtubule-associated protein 2 (MAP2) antibody labeling and flow cytometry analysis (data not shown).

[2] = tested on: cortical neurons; assay: oxygen-glucose deprivation (OGD) model of stroke in primary neurons; type: cell-based, rat; settings: for protection from OGD: treatment at reoxygenation or 5, 15, 30, or 60 minutes after reoxygenation, vs vehicle
Experimental: Cortical neurons were obtained from Sprague-Dawley rat embryos at day 18 of gestation. Cortices were triturated digested with 0.025% trypsin in phosphate buffer saline (PBS) for 10 minutes. Digestion was stopped by the addition of Dulbecco's Modified Eagle Medium (DMEM) containing 10% fetal bovine serum (FBS). Trypsinized cells were filtered using […] disposable cell filters (Becton-Dickinson), washed twice with Neurobasal medium (Gibco) containing 4% FBS, and preplated 4 times for 30 minutes in 150 mm vacuum-plasma treated dishes (Becton-Dickinson). During these preplating steps, primarily non-neuronal cells adhere to the dish, thereby enriching the neuronal population. Enriched neurons were plated at a density of 50×10^3/cm2 in Neurobasal medium containing 4% FBS, 25 μM Glutamax (Gibco), and penicillin-streptomycin (Gibco) in while clear-bottomed 96-well plates (353377) or 24-well plates (353226) (Becton-Dickinson) coaled overnight with 50 μg/ml poly-D-lysine. At plating, spaces between wells in 96-well plates were filled with 50 μl sterile water to minimize evaporation of medium at the edges of the dish. Twenty-four hours later (1 day in vitro, 1 DIV), 50% of the medium was replaced with Neurobasal medium, 2% B27 (Gibco), and 4 μM cytosine arabinoside (AraC) (2 μM AraC final). At 5 DIV, 50% of the medium was replaced with Neurobasal, 2% B27. At 7 DIV, cortical cultures were 98% neurons as assessed by microtubule-associated protein 2 (MAP2) antibody labeling and flow cytometry analysis (data not shown).
Cortical neurons were deprived of oxygen and glucose by incubation in deoxygenated glucose-free Hank's buffered saline solution (HBSS). HBSS was prepared as follows: sodium chloride, NaCl, 8.0 g/L, potassium chloride, KCl, 0.4 g/L, potassium phosphate monobasic, KH2PO4, 0.06 g/L, sodium phosphate dibasic, Na2HPO4, 0.048 g/L, magnesium sulfate. MgSO4, 0.098 g/L, calcium chloride, CaCl2, 0.14 g/L, sodium bicarbonate, NaHCO3, 0.35 g/L, D-glucose, C6H12O6, 1.0 g/L. Solutions were adjusted to pH 7.4 and sterilized by vacuum filtration through 0.2 μm polyether sulfone (PES) membranes. Glucose-free HBSS was prepared by omitting glucose and adding an additional half molar amount of NaCl to adjust osmolarity (8.162 g/L NaCl). Glucose-free HBSS was deoxygenated in a gas washing bottle with 95% nitrogen, 5% CO2 for 20 minutes at a flow rate of 3 L/min in a 37° C. water bath. Culture dishes were washed twice with deoxygenated glucose-free HBSS and incubated for 2 hours in glucose-free deoxygenated HBSS (OGD). Normoxic control cells were handled identically but were incubated in a 5% CO2 incubator with normal HBSS pre-equilibrated in a 5% CO2 atmosphere overnight. […]

For `O=C(Nc1ccc([N+](=O)[O-])cc1O)Nc1ccccc1Br` [SB225002], the “ac-PGP-induced apoptosis (TUNEL stain), dose comparison” value ([1]; 1 nM vs 0.01 and 0.1 nM) was “significantly less apoptotic”, the “ac-PGP-induced apoptosis (TUNEL stain)” value ([1]; pretreatment of primary cortical neurons before ac-PGP exposure, all doses, vs ac-PGP alone) was “significantly less apoptotic; also recorded: blocked ac-PGP neurotoxicity” and the “neuronal protection compared to administration at reoxygenation” value ([2]; administered at 15 minutes post-reoxygenation) was “significantly decreased; also recorded: significantly declined”. For the same compound, the “apoptosis after 2-hour OGD” value ([2]; pretreatment, 24-hour reoxygenation, vs vehicle-treated controls) was “significantly less apoptotic; also recorded: significant protection from OGD”, the “protection from OGD” value [2] was “significant protection” and the “protection from OGD” value ([2]; listed as SB2225002) was “provided neuroprotection”.
